Laboratory results as given in patent publication US20080051429A1, “USE OF 4-AMINO-PIPERIDINES FOR TREATING SLEEP DISORDERS” (priority 2006, published 2008).

Experiments:
Test in all cases: R-SAT broad profiling
Assay type in all cases: cell-based
5-HT6 = molecular target: T1, 5-HT6 (Homo sapiens, UniProt P50406); settings: read-out: pEC50/pIC50 (converted)
T1 construct: expressed in transfected cells
Method: (§1) The functional receptor assay, Receptor Selection and Amplification Technology (R-SAT), was used (with minor modifications from that previously described U.S. Pat. No. 5,707,798) to screen compounds for efficacy at the 5-HT2A receptor. Briefly, NIH3T3 cells were grown in 96 well tissue culture plates to 70-80% confluence. Cells were transfected for 12-16 hours with plasmid DNAs using superfect (Qiagen Inc.) as per manufacture's protocols. R-SAT's were generally performed with 50 ng/well of receptor and 20 ng/well of Beta-galactosidase plasmid DNA. All receptor and G-protein constructs used were in the pSI mammalian expression vector (Promega Inc) as described in U.S. Pat. No. 5,707,798. The 5HT2A receptor gene was amplified by nested PCR from brain cDNA using the oligodeoxynucleotides based on the published sequence (see Saltzman et. al. Biochem. Biophys. Res. Comm. 181:1469-78 (1991)). Large-scale transfections, cells were transfected for 12-16 hours, then trypsinized and frozen in DMSO. Frozen cells were later thawed, plated at 10,000-40,000 cells per well of a 96 well plate that contained drug. With both methods, cells were then grown in a humidified atmosphere with 5% ambient CO2 for five days. Media was then removed from the plates and marker gene activity was measured by the addition of the beta-galactosidase substrate ONPG (in PBS with 5% NP-40). The resulting colorimetric reaction was measured in a spectrophotometric plate reader (Titertek Inc.)at […]. All data were analyzed using the computer program XLFit (IDBSm). Efficacy is the percent maximal repression compared to repression by a control compound (ritanserin in the case of 5HT2A). pIC50 is the negative of the log(IC50), where IC50 is the calculated concentration in Molar that produces 50% maximal repression.
(§2) The R-SAT assay (described above in example 136) was used to investigate the selectivity of 2-(4-Methoxyphenyl)-N-(4-methylbenzyl)-N-(1-methylpiperidin-4-yl)acetamide hydrochloride.

5-HT7 = molecular target: T2, 5-HT7 (Homo sapiens, UniProt P34969); settings: read-out: pEC50/pIC50 (converted)
T2 construct: expressed in transfected cells
T2 sequence (P34969 whole entry, species assumed): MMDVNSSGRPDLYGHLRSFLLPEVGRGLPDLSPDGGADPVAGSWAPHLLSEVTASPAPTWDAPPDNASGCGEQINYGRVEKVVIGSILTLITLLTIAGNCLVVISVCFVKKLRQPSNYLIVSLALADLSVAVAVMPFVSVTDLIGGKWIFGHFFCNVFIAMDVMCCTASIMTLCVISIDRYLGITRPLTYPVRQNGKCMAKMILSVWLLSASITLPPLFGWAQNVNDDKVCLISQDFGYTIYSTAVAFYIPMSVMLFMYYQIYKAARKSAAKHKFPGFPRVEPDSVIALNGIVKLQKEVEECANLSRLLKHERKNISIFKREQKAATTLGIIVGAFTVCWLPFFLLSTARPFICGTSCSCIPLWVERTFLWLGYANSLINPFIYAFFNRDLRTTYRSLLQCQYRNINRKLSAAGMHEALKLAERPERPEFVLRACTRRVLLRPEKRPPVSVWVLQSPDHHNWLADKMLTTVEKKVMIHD
Method: as §1, §2

CCK-A = molecular target: T3, CCK-A (Homo sapiens, UniProt P32238); settings: agonist; read-out: pEC50/pIC50 (converted)
T3 construct: expressed in transfected cells; host or cells: NIH3T3
Method: as §1, §2

D1 = molecular target: T4, D1 (Homo sapiens, UniProt P21728); settings: read-out: pEC50/pIC50 (converted)
T4 construct: expressed in transfected cells; host or cells: NIH3T3
T4 sequence (P21728 whole entry): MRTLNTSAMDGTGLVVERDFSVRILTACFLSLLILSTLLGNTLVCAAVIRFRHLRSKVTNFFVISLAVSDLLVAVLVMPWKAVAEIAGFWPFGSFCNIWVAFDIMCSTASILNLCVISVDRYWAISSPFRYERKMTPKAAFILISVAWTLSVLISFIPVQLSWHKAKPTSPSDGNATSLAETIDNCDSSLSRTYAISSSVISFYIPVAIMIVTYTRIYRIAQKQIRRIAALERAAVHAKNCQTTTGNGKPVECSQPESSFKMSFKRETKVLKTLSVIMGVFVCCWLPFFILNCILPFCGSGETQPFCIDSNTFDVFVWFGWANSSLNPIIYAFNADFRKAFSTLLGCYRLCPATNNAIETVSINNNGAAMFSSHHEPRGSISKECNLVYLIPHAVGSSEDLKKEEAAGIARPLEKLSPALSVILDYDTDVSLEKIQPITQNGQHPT
Method: as §1, §2

D3 = molecular target: T5, D3 (Homo sapiens, UniProt P35462); settings: read-out: pEC50/pIC50 (converted)
T5 construct: expressed in transfected cells; host or cells: NIH3T3
T5 sequence (P35462 whole entry): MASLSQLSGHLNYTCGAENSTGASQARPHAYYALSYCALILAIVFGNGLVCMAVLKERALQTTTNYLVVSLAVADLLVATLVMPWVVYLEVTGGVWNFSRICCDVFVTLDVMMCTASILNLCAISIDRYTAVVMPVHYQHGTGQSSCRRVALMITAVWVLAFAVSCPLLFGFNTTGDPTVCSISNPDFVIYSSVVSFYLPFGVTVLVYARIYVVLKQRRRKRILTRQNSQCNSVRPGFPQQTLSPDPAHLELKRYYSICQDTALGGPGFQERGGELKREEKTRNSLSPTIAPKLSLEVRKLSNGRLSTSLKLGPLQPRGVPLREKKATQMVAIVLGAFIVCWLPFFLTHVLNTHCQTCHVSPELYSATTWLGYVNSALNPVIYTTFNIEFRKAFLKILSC
Method: as §1, §2

Histamine 1 = molecular target: T6, Histamine 1 (Homo sapiens, UniProt P35367); settings: read-out: pEC50/pIC50 (converted)
T6 construct: expressed in transfected cells; host or cells: NIH3T3
T6 sequence (P35367 whole entry): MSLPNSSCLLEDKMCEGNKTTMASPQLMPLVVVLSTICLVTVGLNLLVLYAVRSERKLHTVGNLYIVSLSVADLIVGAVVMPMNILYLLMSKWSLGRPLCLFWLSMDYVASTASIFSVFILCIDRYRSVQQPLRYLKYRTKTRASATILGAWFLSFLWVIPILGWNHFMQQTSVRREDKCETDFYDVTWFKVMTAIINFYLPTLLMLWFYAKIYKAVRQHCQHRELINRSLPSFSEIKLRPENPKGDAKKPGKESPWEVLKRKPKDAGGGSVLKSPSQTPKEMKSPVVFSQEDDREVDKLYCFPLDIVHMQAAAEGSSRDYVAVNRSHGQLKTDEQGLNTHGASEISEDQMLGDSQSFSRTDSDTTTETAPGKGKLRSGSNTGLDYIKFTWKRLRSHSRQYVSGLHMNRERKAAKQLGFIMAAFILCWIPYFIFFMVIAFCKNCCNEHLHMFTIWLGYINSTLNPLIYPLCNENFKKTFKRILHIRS
Method: as §1, §2

Histamine 2 = molecular target: T7, Histamine 2 (Homo sapiens, UniProt P25021); settings: read-out: pEC50/pIC50 (converted)
T7 construct: expressed in transfected cells; host or cells: NIH3T3
T7 sequence (P25021 whole entry): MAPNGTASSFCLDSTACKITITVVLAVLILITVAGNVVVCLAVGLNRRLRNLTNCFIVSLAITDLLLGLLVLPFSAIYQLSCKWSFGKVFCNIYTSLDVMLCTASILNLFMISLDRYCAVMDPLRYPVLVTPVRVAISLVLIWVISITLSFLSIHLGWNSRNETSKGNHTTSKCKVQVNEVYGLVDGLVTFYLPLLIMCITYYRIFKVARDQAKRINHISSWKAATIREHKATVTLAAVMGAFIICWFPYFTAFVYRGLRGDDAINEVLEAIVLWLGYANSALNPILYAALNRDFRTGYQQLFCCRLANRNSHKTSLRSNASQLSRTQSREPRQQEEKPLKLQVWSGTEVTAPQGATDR
Method: as §1, §2

Histamine 3 = molecular target: T8, Histamine 3 (Homo sapiens, UniProt Q9Y5N1); settings: read-out: pEC50/pIC50 (converted)
T8 construct: expressed in transfected cells; host or cells: NIH3T3
T8 sequence (Q9Y5N1 whole entry): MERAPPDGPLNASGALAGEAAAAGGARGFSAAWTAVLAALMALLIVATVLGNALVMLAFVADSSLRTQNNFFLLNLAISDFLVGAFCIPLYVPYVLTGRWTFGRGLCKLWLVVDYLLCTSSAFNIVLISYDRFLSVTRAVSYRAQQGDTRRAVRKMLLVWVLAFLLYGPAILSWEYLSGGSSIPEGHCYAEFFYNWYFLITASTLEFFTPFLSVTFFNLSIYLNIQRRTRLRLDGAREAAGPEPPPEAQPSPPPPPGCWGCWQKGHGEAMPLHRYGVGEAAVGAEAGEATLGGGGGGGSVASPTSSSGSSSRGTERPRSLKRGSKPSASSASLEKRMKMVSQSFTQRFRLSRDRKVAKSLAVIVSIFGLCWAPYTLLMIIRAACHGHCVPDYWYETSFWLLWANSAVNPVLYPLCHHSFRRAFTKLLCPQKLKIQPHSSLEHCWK
Method: as §1, §2

K-opiod = molecular target: T9, K-opiod (Homo sapiens, UniProt P41145); settings: agonist; read-out: pEC50/pIC50 (converted)
T9 construct: expressed in transfected cells; host or cells: NIH3T3
T9 sequence (P41145 whole entry): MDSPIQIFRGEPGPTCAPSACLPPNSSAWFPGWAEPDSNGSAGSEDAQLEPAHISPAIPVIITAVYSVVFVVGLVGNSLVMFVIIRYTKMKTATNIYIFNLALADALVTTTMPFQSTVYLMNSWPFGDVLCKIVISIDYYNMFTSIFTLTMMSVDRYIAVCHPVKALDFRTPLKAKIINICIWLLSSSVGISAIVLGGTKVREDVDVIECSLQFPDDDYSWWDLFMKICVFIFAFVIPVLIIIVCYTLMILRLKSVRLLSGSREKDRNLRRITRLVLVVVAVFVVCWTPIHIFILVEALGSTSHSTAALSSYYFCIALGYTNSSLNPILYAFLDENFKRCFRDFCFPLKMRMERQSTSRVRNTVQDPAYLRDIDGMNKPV
Method: as §1, §2

NK-1 = molecular target: T10, NK-1 (Homo sapiens, UniProt P25103); settings: agonist; read-out: pEC50/pIC50 (converted)
T10 construct: expressed in transfected cells; host or cells: NIH3T3
T10 sequence (P25103 whole entry): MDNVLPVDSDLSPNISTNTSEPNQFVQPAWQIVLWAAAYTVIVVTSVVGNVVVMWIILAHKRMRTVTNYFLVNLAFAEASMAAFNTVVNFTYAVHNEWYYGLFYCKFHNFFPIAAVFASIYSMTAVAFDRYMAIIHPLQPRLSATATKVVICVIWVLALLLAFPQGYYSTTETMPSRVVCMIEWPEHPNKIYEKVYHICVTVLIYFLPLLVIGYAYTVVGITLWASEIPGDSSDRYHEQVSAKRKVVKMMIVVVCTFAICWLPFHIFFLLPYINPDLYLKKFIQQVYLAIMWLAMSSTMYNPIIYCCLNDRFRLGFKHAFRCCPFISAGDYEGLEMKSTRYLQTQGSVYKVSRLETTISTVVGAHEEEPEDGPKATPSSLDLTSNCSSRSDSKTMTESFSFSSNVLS
Method: as §1, §2

Vasopressin1A = molecular target: T11, Vasopressin1A (Homo sapiens, UniProt P37288); settings: agonist; read-out: pEC50/pIC50 (converted)
T11 construct: expressed in transfected cells; host or cells: NIH3T3
T11 sequence (P37288 whole entry): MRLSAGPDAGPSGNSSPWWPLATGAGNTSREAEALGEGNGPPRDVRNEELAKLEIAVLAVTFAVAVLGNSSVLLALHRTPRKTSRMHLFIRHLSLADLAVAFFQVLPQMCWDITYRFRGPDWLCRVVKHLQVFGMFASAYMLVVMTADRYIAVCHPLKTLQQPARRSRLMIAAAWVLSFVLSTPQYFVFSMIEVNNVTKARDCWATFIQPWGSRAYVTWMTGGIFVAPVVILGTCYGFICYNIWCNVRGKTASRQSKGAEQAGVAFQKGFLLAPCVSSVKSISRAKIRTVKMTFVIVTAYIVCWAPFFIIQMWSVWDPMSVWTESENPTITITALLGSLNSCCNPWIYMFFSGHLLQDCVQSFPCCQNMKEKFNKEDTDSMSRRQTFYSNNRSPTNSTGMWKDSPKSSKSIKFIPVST
Method: as §1, §2

alpha 2B = molecular target: T12, alpha 2B (Homo sapiens, UniProt P18089); settings: read-out: pEC50/pIC50 (converted)
T12 construct: expressed in transfected cells; host or cells: NIH3T3
T12 sequence (P18089 1-450): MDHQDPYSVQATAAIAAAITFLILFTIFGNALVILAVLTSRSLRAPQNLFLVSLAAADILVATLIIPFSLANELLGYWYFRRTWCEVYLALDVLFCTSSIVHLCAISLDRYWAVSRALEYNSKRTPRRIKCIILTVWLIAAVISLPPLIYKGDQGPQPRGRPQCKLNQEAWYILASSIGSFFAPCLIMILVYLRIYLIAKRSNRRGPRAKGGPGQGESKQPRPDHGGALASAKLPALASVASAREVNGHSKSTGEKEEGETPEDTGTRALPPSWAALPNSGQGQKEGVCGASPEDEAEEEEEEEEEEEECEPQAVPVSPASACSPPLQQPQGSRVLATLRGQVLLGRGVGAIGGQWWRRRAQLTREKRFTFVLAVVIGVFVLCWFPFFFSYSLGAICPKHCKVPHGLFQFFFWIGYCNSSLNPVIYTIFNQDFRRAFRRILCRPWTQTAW
Method: as §1, §2

beta 1 = molecular target: T13, beta 1 (Homo sapiens, UniProt P08588); settings: read-out: pEC50/pIC50 (converted)
T13 construct: expressed in transfected cells; host or cells: NIH3T3
T13 sequence (P08588 whole entry): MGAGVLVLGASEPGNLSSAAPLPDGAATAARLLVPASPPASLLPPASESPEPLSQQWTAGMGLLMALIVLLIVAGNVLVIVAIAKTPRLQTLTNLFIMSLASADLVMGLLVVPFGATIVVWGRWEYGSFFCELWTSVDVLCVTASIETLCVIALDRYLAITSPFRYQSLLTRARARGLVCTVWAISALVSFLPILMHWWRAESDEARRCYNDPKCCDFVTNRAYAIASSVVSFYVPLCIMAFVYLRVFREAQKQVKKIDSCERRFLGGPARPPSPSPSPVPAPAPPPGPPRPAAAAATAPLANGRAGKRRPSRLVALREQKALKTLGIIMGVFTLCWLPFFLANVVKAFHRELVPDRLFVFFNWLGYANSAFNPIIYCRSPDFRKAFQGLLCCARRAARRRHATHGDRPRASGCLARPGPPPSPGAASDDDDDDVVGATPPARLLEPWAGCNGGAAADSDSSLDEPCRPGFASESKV
Method: as §1, §2

m2 = molecular target: T14, m2 (Homo sapiens, UniProt P08172); settings: read-out: pEC50/pIC50 (converted)
T14 construct: expressed in transfected cells; host or cells: NIH3T3
T14 sequence (P08172 1-466): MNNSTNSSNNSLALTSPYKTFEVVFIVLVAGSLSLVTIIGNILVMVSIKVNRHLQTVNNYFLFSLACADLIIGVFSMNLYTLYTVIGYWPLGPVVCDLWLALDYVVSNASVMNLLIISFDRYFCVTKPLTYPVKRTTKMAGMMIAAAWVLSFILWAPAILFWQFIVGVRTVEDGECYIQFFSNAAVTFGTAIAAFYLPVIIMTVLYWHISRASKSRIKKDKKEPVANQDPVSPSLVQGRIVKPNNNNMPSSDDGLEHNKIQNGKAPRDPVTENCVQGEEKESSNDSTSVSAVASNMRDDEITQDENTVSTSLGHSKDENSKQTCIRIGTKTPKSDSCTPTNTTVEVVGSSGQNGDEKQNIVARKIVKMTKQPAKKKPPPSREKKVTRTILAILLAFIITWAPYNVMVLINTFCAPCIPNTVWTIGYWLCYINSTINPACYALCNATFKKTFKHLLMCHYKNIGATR
Method: as §1, §2

T1 sequence (P50406 whole entry, species assumed): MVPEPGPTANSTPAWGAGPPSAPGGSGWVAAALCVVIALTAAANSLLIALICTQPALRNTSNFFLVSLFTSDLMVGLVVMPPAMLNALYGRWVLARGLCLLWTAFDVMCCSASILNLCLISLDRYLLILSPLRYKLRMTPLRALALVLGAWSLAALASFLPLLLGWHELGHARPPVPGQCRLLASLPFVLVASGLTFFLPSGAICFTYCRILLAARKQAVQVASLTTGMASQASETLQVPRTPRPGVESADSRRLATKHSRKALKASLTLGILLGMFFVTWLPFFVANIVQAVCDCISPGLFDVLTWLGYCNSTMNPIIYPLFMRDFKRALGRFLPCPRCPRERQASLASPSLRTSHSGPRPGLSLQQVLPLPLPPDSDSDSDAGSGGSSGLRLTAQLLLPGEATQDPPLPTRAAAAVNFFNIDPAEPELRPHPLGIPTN

IC50 (5-HT6; Inv. Agonist): 0.158 µM
EC50 (5-HT6; agonist): > 3.16 µM
EC50 (5-HT7; agonist): > 3.16 µM
IC50 (5-HT7; inverse agonist): 0.126 µM
EC50 (CCK-A): > 3.16 µM
EC50 (D1; agonist): > 3.16 µM
IC50 (D1; antagonist): > 3.16 µM
EC50 (D3; agonist): > 3.16 µM
IC50 (D3; antagonist): > 3.16 µM
IC50 (Histamine 1; Inv. Agonist): > 3.16 µM
EC50 (Histamine 1; agonist): > 3.16 µM
EC50 (Histamine 2; agonist): > 3.16 µM
IC50 (Histamine 2; antagonist): > 3.16 µM
EC50 (Histamine 3; agonist): > 3.16 µM
IC50 (Histamine 3; antagonist): > 3.16 µM
EC50 (K-opiod): > 3.16 µM
EC50 (NK-1): > 3.16 µM
EC50 (Vasopressin1A): > 3.16 µM
EC50 (alpha 2B; agonist): > 3.16 µM
IC50 (alpha 2B; antagonist): > 3.16 µM
EC50 (beta 1; agonist): > 3.16 µM
IC50 (beta 1; antagonist): > 3.16 µM
EC50 (m2; agonist): > 3.16 µM
IC50 (m2; antagonist): > 3.16 µM
Structure (SMILES): COc1ccc(CC(=O)N(Cc2ccc(C)cc2)C2CCN(C)CC2)cc1 [Example 50ELH27, 2-(4-Methoxyphenyl)-N-(4-methylbenzyl)-N-(1-methylpiperidin-4-yl)acetamide]
